Measured values reported in PMC9387934, “Randomized single oral dose phase 1 study of safety, tolerability, and pharmacokinetics of Iminosugar UV-4 Hydrochloride (UV-4B) in healthy subjects” (PLoS Neglected Tropical Diseases, 2022).
Where “and” joins values, the source holds several entries; their conditions need not be identical. Equal values may be shown once.

Test: Phase 1a single ascending dose study: UV-4 plasma concentrations and PK parameters (LC-MS/MS, noncompartmental)
Type: in vivo
Conditions: for CONCENTRATION UV4: human plasma
Experimental: UV-4 ((2R,3R,4R,5S)-2-(hydroxymethyl)-1-(9-methoxynonyl)piperidine-3,4,5-triol, also called N-(9’-methoxynonyl)-1-deoxynojirimycin, or MON-DNJ) hydrochloride was evaluated in a first-in-human, randomized, single-center, double-blind, placebo-controlled, parallel group, single ascending dose Phase 1a clinical trial in healthy subjects (Figs 1 and 2, ClinicalTrials.gov Identifier NCT02061358 https://clinicaltrials.gov/ct2/show/NCT02061358). The primary objective was to determine the safety and tolerability of a single-ascending oral dose of UV-4 hydrochloride (Fig 3). […] The secondary objective was to determine PK parameters describing absorption and elimination of UV-4 following a single oral dose of UV-4 hydrochloride. Eight cohorts of eight subjects each were enrolled and completed the study. In each cohort, six subjects received UV-4 as the hydrochloride; two received placebo. Subjects were screened against study eligibility criteria up to four weeks (Days -28 to -2) before admission to the clinic (Day -1). Dosing was performed on an inpatient basis. Subjects remained in clinic for 48 hours post-dosing for PK sample collection and safety assessments and were discharged from the clinic on Day 3. Subjects returned to the clinic on Day 4 for additional safety assessments, then again on Day 9 ± 1 for a final follow-up visit.
Eligible subjects were healthy males and females, age 18–45 years, with a body mass index between 18 and 30 kg/m^2 inclusive and a minimum body weight of 60 kg. Subjects were considered healthy based on medical history, physical exam, vital signs, 12-lead electrocardiogram (ECG), clinical laboratory tests (hematology, blood chemistry, urinalysis), viral serology, and drug and alcohol screening. Male and female subjects of childbearing potential were required to use adequate contraception over the course of the clinical trial. […] Only subjects who met all inclusion and none of the exclusion criteria prior to administration of the investigational product were enrolled into the study (no exemptions were granted). A total of 64 subjects were enrolled (eight cohorts of eight subjects each). In each of the eight cohorts, six subjects were randomized to receive a single dose of UV-4 (3 to 1000 mg, depending on cohort) as the hydrochloride salt, and two subjects to receive placebo. Cohort size of six active subjects was based on analysis that increasing cohort size above six in a first-in-human study gains little in the ability to observe a drug induced event, and results in observing more events that are not related to study drug. Two of the eight subjects in each cohort (sentinel subjects; one active and one placebo) received their doses at least 48 h before the remaining subjects in each cohort.
On each day of use, bulk drug substance (UV-4B for solubilization, SAI Life Sciences Ltd. Telangana, India) was removed from a single-use container, weighed at the study center, and solubilized in 20 mL sterile water for injection (SWFI) (Hospira Inc. Illinois, United States of America). Weight of solid drug substance was converted to dose of UV-4 by applying purity and salt correction factor per pharmacy manual when preparing the dosing solution. UV-4B solution was administered orally with 10 mL of taste-masking agent, OraSweet-SF (Paddock Laboratories LLC, Minneapolis, United States of America) in a total volume of 30 mL, to assist in maintaining study blinding. Placebo was SWFI (20 mL) plus OraSweet-SF (10 mL). Concentrations and doses were calculated and expressed as the active free base form, UV-4. This methodology is consistent with USP<1121>, which recommends that the strength of a drug product or preparation is expressed in terms of the active moiety. Following consumption of active or placebo solution, the dosing container was rinsed with 50 mL of tap water also consumed by subjects. […]

COCCCCCCCCCN1C[C@H](O)[C@@H](O)[C@H](O)[C@H]1CO [UV4]
CONCENTRATION UV4 in human plasma (Cohort 7, nominal day 1, nominal hour 0, individual subjects): <LLOQ (0.500) ng/mL | CONCENTRATION UV4 in human plasma (Cohort 7, nominal day 1, nominal hour 0, subject with all samples <LLOQ): <LLOQ (0.500) ng/mL | CONCENTRATION UV4 in human plasma (Cohort 7, nominal day 1, nominal hour 0.5, individual subjects): 8420 ng/mL and 5960 ng/mL and 5510 ng/mL and 13200 ng/mL and 9650 ng/mL | CONCENTRATION UV4 in human plasma (Cohort 7, nominal day 1, nominal hour 0.5, subject with all samples <LLOQ): <LLOQ (0.500) ng/mL | CONCENTRATION UV4 in human plasma (Cohort 7, nominal day 1, nominal hour 1, individual subjects): 8390 ng/mL and 11600 ng/mL and 8700 ng/mL and 11700 ng/mL and 8870 ng/mL | CONCENTRATION UV4 in human plasma (Cohort 7, nominal day 1, nominal hour 1, subject with all samples <LLOQ): <LLOQ (0.500) ng/mL | CONCENTRATION UV4 in human plasma (Cohort 7, nominal day 1, nominal hour 1.5, individual subjects): 7250 ng/mL and 7490 ng/mL and 5760 ng/mL and 7510 ng/mL and 6190 ng/mL | CONCENTRATION UV4 in human plasma (Cohort 7, nominal day 1, nominal hour 1.5, subject with all samples <LLOQ): <LLOQ (0.500) ng/mL | CONCENTRATION UV4 in human plasma (Cohort 7, nominal day 1, nominal hour 2, individual subjects): 5560 ng/mL and 6260 ng/mL and 4660 ng/mL and 6160 ng/mL and 5490 ng/mL | CONCENTRATION UV4 in human plasma (Cohort 7, nominal day 1, nominal hour 2, subject with all samples <LLOQ): <LLOQ (0.500) ng/mL | CONCENTRATION UV4 in human plasma (Cohort 7, nominal day 1, nominal hour 2.5, individual subjects): 4270 ng/mL and 6030 ng/mL and 3950 ng/mL and 4710 ng/mL and 4800 ng/mL | CONCENTRATION UV4 in human plasma (Cohort 7, nominal day 1, nominal hour 2.5, subject with all samples <LLOQ): <LLOQ (0.500) ng/mL | CONCENTRATION UV4 in human plasma (Cohort 7, nominal day 1, nominal hour 3, individual subjects): 3650 ng/mL and 5660 ng/mL and 3610 ng/mL and 4080 ng/mL and 4540 ng/mL | CONCENTRATION UV4 in human plasma (Cohort 7, nominal day 1, nominal hour 3, subject with all samples <LLOQ): <LLOQ (0.500) ng/mL | CONCENTRATION UV4 in human plasma (Cohort 7, nominal day 1, nominal hour 4, individual subjects): 2230 ng/mL and 3760 ng/mL and 2630 ng/mL and 3120 ng/mL and 3370 ng/mL | CONCENTRATION UV4 in human plasma (Cohort 7, nominal day 1, nominal hour 4, subject with all samples <LLOQ): <LLOQ (0.500) ng/mL | CONCENTRATION UV4 in human plasma (Cohort 7, nominal day 1, nominal hour 6, individual subjects): 1120 ng/mL and 1930 ng/mL and 1770 ng/mL and 1610 ng/mL and 1730 ng/mL | CONCENTRATION UV4 in human plasma (Cohort 7, nominal day 1, nominal hour 6, subject with all samples <LLOQ): <LLOQ (0.500) ng/mL | CONCENTRATION UV4 in human plasma (Cohort 7, nominal day 1, nominal hour 9, individual subjects): 429 ng/mL and 642 ng/mL and 790 ng/mL and 588 ng/mL and 656 ng/mL | CONCENTRATION UV4 in human plasma (Cohort 7, nominal day 1, nominal hour 9, subject with all samples <LLOQ): <LLOQ (0.500) ng/mL | CONCENTRATION UV4 in human plasma (Cohort 7, nominal day 1, nominal hour 12, individual subjects): 184 ng/mL and 254 ng/mL and 352 ng/mL and 266 ng/mL and 301 ng/mL | CONCENTRATION UV4 in human plasma (Cohort 7, nominal day 1, nominal hour 12, subject with all samples <LLOQ): <LLOQ (0.500) ng/mL | CONCENTRATION UV4 in human plasma (Cohort 7, nominal day 1, nominal hour 18, individual subjects): 47.6 ng/mL and 69.6 ng/mL and 82.9 ng/mL and 80.3 ng/mL and 78.0 ng/mL | CONCENTRATION UV4 in human plasma (Cohort 7, nominal day 1, nominal hour 18, subject with all samples <LLOQ): <LLOQ (0.500) ng/mL | CONCENTRATION UV4 in human plasma (Cohort 7, nominal day 2, nominal hour 24, individual subjects): 58.7 ng/mL and 27.8 ng/mL and 38.9 ng/mL and 46.4 ng/mL and 45.6 ng/mL and 40.8 ng/mL | CONCENTRATION UV4 in human plasma (Cohort 7, nominal day 2, nominal hour 24, subject with all samples <LLOQ): <LLOQ (0.500) ng/mL | CONCENTRATION UV4 in human plasma (Cohort 7, nominal day 2, nominal hour 36, individual subjects): 17.4 ng/mL and 8.03 ng/mL and 10.9 ng/mL and 14.8 ng/mL and 12.7 ng/mL | CONCENTRATION UV4 in human plasma (Cohort 7, nominal day 2, nominal hour 36, subject with all samples <LLOQ): <LLOQ (0.500) ng/mL | CONCENTRATION UV4 in human plasma (Cohort 7, nominal day 3, nominal hour 48, individual subjects): 7.94 ng/mL and 3.58 ng/mL and 4.75 ng/mL and 6.57 ng/mL and 8.76 ng/mL and 6.60 ng/mL | CONCENTRATION UV4 in human plasma (Cohort 7, nominal day 3, nominal hour 48, subject with all samples <LLOQ): <LLOQ (0.500) ng/mL | CONCENTRATION UV4 in human plasma (Cohort 8, nominal day 1, nominal hour 0, subjects with all samples <LLOQ): <LLOQ (0.500) ng/mL | CONCENTRATION UV4 in human plasma (Cohort 8, nominal day 1, nominal hour 0.5, subjects with all samples <LLOQ): <LLOQ (0.500) ng/mL | CONCENTRATION UV4 in human plasma (Cohort 8, nominal day 1, nominal hour 1, subjects with all samples <LLOQ): <LLOQ (0.500) ng/mL | CONCENTRATION UV4 in human plasma (Cohort 8, nominal day 1, nominal hour 1.5, subjects with all samples <LLOQ): <LLOQ (0.500) ng/mL | CONCENTRATION UV4 in human plasma (Cohort 8, nominal day 1, nominal hour 2, subjects with all samples <LLOQ): <LLOQ (0.500) ng/mL | CONCENTRATION UV4 in human plasma (Cohort 8, nominal day 1, nominal hour 2.5, subjects with all samples <LLOQ): <LLOQ (0.500) ng/mL | CONCENTRATION UV4 in human plasma (Cohort 8, nominal day 1, nominal hour 3, subjects with all samples <LLOQ): <LLOQ (0.500) ng/mL | CONCENTRATION UV4 in human plasma (Cohort 8, nominal day 1, nominal hour 4, subjects with all samples <LLOQ): <LLOQ (0.500) ng/mL | CONCENTRATION UV4 in human plasma (Cohort 8, nominal day 1, nominal hour 6, subjects with all samples <LLOQ): <LLOQ (0.500) ng/mL | CONCENTRATION UV4 in human plasma (Cohort 8, nominal day 1, nominal hour 9, subjects with all samples <LLOQ): <LLOQ (0.500) ng/mL | CONCENTRATION UV4 in human plasma (Cohort 8, nominal day 1, nominal hour 12, subjects with all samples <LLOQ): <LLOQ (0.500) ng/mL | CONCENTRATION UV4 in human plasma (Cohort 8, nominal day 1, nominal hour 18, subjects with all samples <LLOQ): <LLOQ (0.500) ng/mL | CONCENTRATION UV4 (Cohort 1, nominal day 1, nominal hour 0): <LLOQ (0.500) ng/mL | CONCENTRATION UV4 (Cohort 1, nominal day 3, nominal hour 48): <LLOQ (0.500) ng/mL
